{
  "source": "patent US10442835B2",
  "about": "“Water-soluble rapamycin derivatives” (Zhejiang Hisun Pharmaceutical Co., Ltd., priority 2016, dated 2019)",
  "key": {"[1]": {"assay": "Body weight of NCI-H460 tumor nude mice;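 note: Tumor-bearing mice dosed for 4 weeks once tumors reached 150–200 mm^3, with a vehicle control group, and body weight loss taken as an indirect sign of drug toxicity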", "details": "for Body Weights, mean value / Decrease rate (body weight) / Decrease in body weight: everolimus 5 mg/kg, compound I-1 6.8 mg/kg, qw 4×", "quoted_text": "NCI-H460 (the 3rd generation) tumors in the rapid proliferation stage inoculated in the axilla of nude mice were cut into tumor lumps with a size of 1 mm*1 mm*1 mm and then were inoculated subcutaneously to the right limb of nude mice using a trocar under a sterile condition. When the tumors grew to 150˜200 mm^3, the mice were divided into groups and then administrated with the compounds for 4 weeks. The major diameter (a) and the minor diameter (b) of the tumors were measured two or three times a week. The tumor volume (TV) and the relative tumor proliferation rate (T/C) were calculated. The equation for calculating the tumor volume is: TV=½×a×b^2. The equation for calculating the relative tumor proliferation rate is T/C=TRTC/CRTV (TRTC: average relative tumor volume in the treatment group; CRTV: average relative tumor volume in the vehicle control group). Tumors were stripped and weighted at Day 28 and the tumor-inhibition rate was calculated with the following equation: (tumor weight of control−tumor weight of experimental group)/tumor weight of control×100%.\nGrouping method: the mice were divided into 3 groups with 6 mice per group when the tumors averagely grew to about 195 mm^3, depending on the growth regularity of the tumor and the dosage regimen. Administration route: intragastrical administration.\nG1: Control (vehicle, qw 4×, iv)\nG2: Positive drug group: Everolimus (5 mg/kg, qw 4×, iv)"}, "[2]": {"test_system": "human lung cancer cell NCI-H460", "assay": "In vivo inhibitory activity against NCI-H460 tumor in nude mice", "details": "everolimus 5 mg/kg, compound I-1 6.8 mg/kg, qw 4×"}, "[3]": {"test_system": "prostate cancer cell DU145", "assay": "In vitro activity assay, growth of DU145", "type": "cell-based", "details": "Homo sapiens; DU-145; 48 h", "text": "(§1) The anti-tumor activity and toxicity of the compounds according to the present invention can be assayed through standard operational procedures of pharmacological experiment. The experiments carried out herein can test the inhibitory effect of the compounds according to the present invention on the growth of human liver cancer cell HepG2, lung cancer cell NCI460, prostate cancer cell DU145, prostate cancer cell PC3, and human breast cancer cell MDA-MB-435. The operational procedure used is briefly described below by taking the inhibitory activity assay against human liver cancer cell HepG2 as an example.\n(§2) The operational procedure for the assay is as follows:\n(§3) 1. Cells after being trypsinized were inoculated in 96-well plates at a concentration of 10^4 cells/well, and allowed to grow in a medium with a final volume of 200 μL. The 96-well plates after inoculation are allowed to stand for 24 hours at 37° C., in order to allow the cells to adhere to the surface of the wells.\n(§4) 2. The medium was removed by carefully pipetting without disturbing the cell monolayer. 200 μL Fresh medium was added into each well. It is arranged to make it possible to collect samples from enough wells to run the experiments in triplicate.\n(§5) 3. The compounds to be tested according to the present invention were dissolved into 10 μL phosphate buffered solution (PBS) and incubated for 48 h at 37° C.\n(§6) 4. In the last 6 h of incubation, cells in each well of the 96-well plates were labeled by 1 microcurie T thymidine (New England Nuclear thymidine), by adding 10 μL PBS containing 1 microcurie T thymidine (which was added into the PBS on the day of collecting the samples for test). The 96-well plates were then returned to the incubator and incubated for the last 6 h.\n(§7) 5. Without disturbing the cell monolayer, the radioactive medium was removed by pipetting. Then 50 μL of BRL 10×trypsin was added to each well, followed by incubation at 37° C. for 10 minutes or until the cell monolayer was detached from the bottom (or the wall) of each well. Samples were collected on glass-fiber diskettes using a Skatron 96-well cell harvester. Cells depositing on the glass-fiber diskettes were counted in a Wallac Betaplate counter."}, "[4]": {"test_system": "human breast cancer cell MDA-MB-435", "assay": "In vitro activity assay, growth of MDA-MB-435", "type": "cell-based", "details": "48 h", "text": "as §1, §2, §3, §4, §5, §6, §7"}, "[5]": {"test_system": "human liver cancer cell HepG2", "assay": "In vitro activity assay, growth of HepG2 (thymidine incorporation)", "type": "cell-based", "details": "48 h", "text": "as §1\nHuman liver cancer cell HepG2 grew in the follow medium:\nPreparation of the growth medium: BRL minimum essential medium with Earle Salts (500 mL), with the addition of the following agents:\nas §2, §3, §4, §5, §6, §7"}, "prostate cancer cell PC3": {"test_system": "prostate cancer cell PC3", "assay": "In vitro activity assay, growth of PC3", "type": "cell-based", "details": "48 h", "text": "as §1, §2, §3, §4, §5, §6, §7"}, "[6]": {"test_system": "human renal cell carcinoma OS-RC-2", "assay": "In vivo inhibitory activity against human renal cell carcinoma OS-RC-2 in nude mice", "details": "for Tumor Weight ± SD: end of experiment", "method": "The tumor inhibition rate was calculated."}, "DU145": {"test_system": "DU145", "assay": "In vivo tumor inhibitory efficacy against DU145 tumor in nude mice, intragastrical vs injection", "details": "3×/w, 4 w", "quoted_text": "DU145 (the 3rd generation) tumors in the rapid proliferation stage inoculated in the axilla of nude mice were cut into tumor lumps with a size of 1 mm*1 mm*1 mm and then were inoculated subcutaneously to the right limb of nude mice using a trocar under a sterile condition. When the tumors grow to 150-200 mm^3, the mice were randomly divided into three groups and then administrated with the compounds for 4 weeks. The major diameter (a) and the minor diameter (b) of the tumors were measured 2 or 3 times a week. The tumor volume (TV) was calculated with the following equation: TV=½×a×b^2. Tumors were stripped and weighted at Day 28 and the tumor inhibition rate was calculated using the following equation: (tumor weight of control−tumor weight of experimental group)/tumor weight of control×100%.\nThe nude mice were divided into 3 groups with 4 mice per group when the tumors averagely grew to about 185-200 mm^3, depending on the growth regularity of the tumor and the dosage regimen."}, "[7]": {"details": "G4 compound I-1 8.12 mg/kg ig 3×/qw"}, "[8]": {"details": "G5 compound I-1 2.0 mg/kg iv 3×/qw"}, "[9]": {"details": "G6 compound I-1 8.12 mg/kg iv 3×/qw"}, "[10]": {"details": "G7 compound I-1 32.7 mg/kg iv 1×/qw"}},
  "note": "“And” between values parts separate entries of the source, which are not always exact repeats. Equal entries are not always repeated.",
  "data": [
    {"smiles": "CO[C@H]1C[C@@H]2CC[C@@H](C)[C@@](O)(O2)C(=O)C(=O)N2CCCC[C@H]2C(=O)OC([C@H](C)C[C@@H]2CC[C@@H](OCCOC(=O)CSC[C@H](NC(=O)CC[C@H](N)C(=O)O)C(=O)NCC(=O)O)[C@H](OC)C2)CC(=O)[C@H](C)/C=C(\\C)[C@@H](O)[C@@H](OC)C(=O)[C@H](C)C[C@@H](C)\\C=C/C=C/C=C/1C", "note": "(stereo partly shown) [Compound I-1]", "values": [
      {"measurement": "Body Weights, mean value", "setting": "[1]; Day 0", "result": 26.20, "unit": "g"},
      {"measurement": "Body Weights, mean value", "setting": "[1]; Day 3", "result": 25.49, "unit": "g"},
      {"measurement": "Decrease rate (body weight)", "setting": "[1]; Day 3", "result": 2.73, "unit": "%"},
      {"measurement": "Decrease in body weight", "setting": "[1]; Day 3 vs Day 0", "result": 0.72, "unit": "g"},
      {"measurement": "Body Weights, mean value", "setting": "[1]; Day 7", "result": 26.79, "unit": "g"},
      {"measurement": "Decrease rate (body weight)", "setting": "[1]; Day 7", "result": "−2.23", "unit": "%"},
      {"measurement": "Decrease in body weight", "setting": "[1]; Day 7 vs Day 0", "result": -0.58, "unit": "g"},
      {"measurement": "Body Weights, mean value", "setting": "[1]; Day 10", "result": 26.20, "unit": "g"},
      {"measurement": "Decrease rate (body weight)", "setting": "[1]; Day 10", "result": 0.00, "unit": "%"},
      {"measurement": "Decrease in body weight", "setting": "[1]; Day 10 vs Day 0", "result": 0.00, "unit": "g"},
      {"measurement": "Body Weights, mean value", "setting": "[1]; Day 14", "result": 27.74, "unit": "g"},
      {"measurement": "Decrease rate (body weight)", "setting": "[1]; Day 14", "result": "−5.87", "unit": "%"},
      {"measurement": "Decrease in body weight", "setting": "[1]; Day 14 vs Day 0", "result": -1.54, "unit": "g"},
      {"measurement": "Body Weights, mean value", "setting": "[1]; Day 17", "result": 27.84, "unit": "g"},
      {"measurement": "Decrease rate (body weight)", "setting": "[1]; Day 17", "result": "−6.24", "unit": "%"},
      {"measurement": "Decrease in body weight", "setting": "[1]; Day 17 vs Day 0", "result": -1.64, "unit": "g"},
      {"measurement": "Body Weights, mean value", "setting": "[1]; Day 21", "result": 28.42, "unit": "g"},
      {"measurement": "Decrease rate (body weight)", "setting": "[1]; Day 21", "result": "−8.46", "unit": "%"},
      {"measurement": "Decrease in body weight", "setting": "[1]; Day 21 vs Day 0", "result": -2.22, "unit": "g"},
      {"measurement": "Body Weights, mean value", "setting": "[1]; Day 24", "result": 28.09, "unit": "g"},
      {"measurement": "Decrease rate (body weight)", "setting": "[1]; Day 24", "result": "−7.20", "unit": "%"},
      {"measurement": "Decrease in body weight", "setting": "[1]; Day 24 vs Day 0", "result": -1.89, "unit": "g"},
      {"measurement": "Body Weights, mean value", "setting": "[1]; Day 28", "result": 29.00, "unit": "g"},
      {"measurement": "Decrease rate (body weight)", "setting": "[1]; Day 28", "result": "−10.68", "unit": "%"},
      {"measurement": "Decrease in body weight", "setting": "[1]; Day 28 vs Day 0", "result": -2.80, "unit": "g"},
      {"measurement": "toxic and side effect in vivo", "setting": "[1]; judged from body weight, compound I-1 6.8 mg/kg vs everolimus 5 mg/kg", "result": "significantly lower than that of everolimus"},
      {"measurement": "Mean Volume of Tumor", "setting": "[2]; Day 0", "result": 195.1545, "unit": "mm^3"},
      {"measurement": "Mean Volume of Tumor", "setting": "[2]; Day 3", "result": 232.4297, "unit": "mm^3"},
      {"measurement": "Mean Volume of Tumor", "setting": "[2]; Day 7", "result": 273.2138, "unit": "mm^3"},
      {"measurement": "Mean Volume of Tumor", "setting": "[2]; Day 10", "result": 360.0897, "unit": "mm^3"},
      {"measurement": "Mean Volume of Tumor", "setting": "[2]; Day 14", "result": 506.8288, "unit": "mm^3"},
      {"measurement": "Mean Volume of Tumor", "setting": "[2]; Day 17", "result": 612.8810, "unit": "mm^3"},
      {"measurement": "Mean Volume of Tumor", "setting": "[2]; Day 21", "result": 934.2806, "unit": "mm^3"},
      {"measurement": "Mean Volume of Tumor", "setting": "[2]; Day 24", "result": 1089.1761, "unit": "mm^3"},
      {"measurement": "Tumor Inhibition Rate", "setting": "[2]; Day 28, by tumor weight", "result": "68% and 68.29%"},
      {"measurement": "Mean Volume of Tumor", "setting": "[2]; Day 28", "result": 1354.8457, "unit": "mm^3"},
      {"measurement": "Tumor Weight ± SD", "setting": "[2]; Day 28", "result": "0.8463 ± 0.1582", "unit": "g"},
      {"measurement": "IC50", "setting": "[3]", "result": "56.215 ± 0.003", "unit": "µM"},
      {"measurement": "IC50", "setting": "[4]", "result": "55.345 ± 0.005", "unit": "µM"},
      {"measurement": "IC50", "setting": "[5]", "result": "11.127 ± 0.005", "unit": "µM"},
      {"measurement": "IC50", "setting": "prostate cancer cell PC3", "result": "25.978 ± 0.008", "unit": "µM"},
      {"measurement": "Tumor Inhibition Rate", "setting": "[6]; [7]", "result": 55.6, "unit": "%"},
      {"measurement": "Tumor Inhibition Rate", "setting": "[6]; [8]", "result": 57.1, "unit": "%"},
      {"measurement": "Tumor Inhibition Rate", "setting": "[6]; [9]", "result": 59.9, "unit": "%"},
      {"measurement": "Tumor Inhibition Rate", "setting": "[6]; [10]", "result": 60.6, "unit": "%"},
      {"measurement": "tumor inhibitory effect (FIG. 7)", "setting": "[6]; compound I-1 injection, 2.0 mg/Kg 3 times a week or 32.7 mg/Kg once a week", "result": "a good tumor inhibitory effect"},
      {"measurement": "Tumor Weight ± SD", "setting": "[6]; [7]", "result": "0.3002 ± 0.1108", "unit": "g"},
      {"measurement": "Tumor Weight ± SD", "setting": "[6]; [8]", "result": "0.2905 ± 0.0936", "unit": "g"},
      {"measurement": "Tumor Weight ± SD", "setting": "[6]; [9]", "result": "0.2710 ± 0.1695", "unit": "g"},
      {"measurement": "Tumor Weight ± SD", "setting": "[6]; [10]", "result": "0.2669 ± 0.1023", "unit": "g"},
      {"measurement": "Mean Volume of Tumor", "setting": "DU145; Day 0, G2 compound I-1 3.4 mg/kg tail vein injection", "result": 189.84, "unit": "mm^3"},
      {"measurement": "Mean Volume of Tumor", "setting": "DU145; Day 0, G3 compound I-1 1.7 mg/kg tail vein injection", "result": 187.29, "unit": "mm^3"},
      {"measurement": "Mean Volume of Tumor", "setting": "DU145; Day 3, G2 compound I-1 3.4 mg/kg tail vein injection", "result": 203.79, "unit": "mm^3"},
      {"measurement": "Mean Volume of Tumor", "setting": "DU145; Day 3, G3 compound I-1 1.7 mg/kg tail vein injection", "result": 235.34, "unit": "mm^3"},
      {"measurement": "Mean Volume of Tumor", "setting": "DU145; Day 7, G2 compound I-1 3.4 mg/kg tail vein injection", "result": 223.91, "unit": "mm^3"},
      {"measurement": "Mean Volume of Tumor", "setting": "DU145; Day 7, G3 compound I-1 1.7 mg/kg tail vein injection", "result": 250.90, "unit": "mm^3"},
      {"measurement": "Mean Volume of Tumor", "setting": "DU145; Day 10, G2 compound I-1 3.4 mg/kg tail vein injection", "result": 245.45, "unit": "mm^3"},
      {"measurement": "Mean Volume of Tumor", "setting": "DU145; Day 10, G3 compound I-1 1.7 mg/kg tail vein injection", "result": 269.25, "unit": "mm^3"},
      {"measurement": "Mean Volume of Tumor", "setting": "DU145; Day 14, G2 compound I-1 3.4 mg/kg tail vein injection", "result": 255.59, "unit": "mm^3"},
      {"measurement": "Mean Volume of Tumor", "setting": "DU145; Day 14, G3 compound I-1 1.7 mg/kg tail vein injection", "result": 281.22, "unit": "mm^3"},
      {"measurement": "Mean Volume of Tumor", "setting": "DU145; Day 17, G2 compound I-1 3.4 mg/kg tail vein injection", "result": 261.55, "unit": "mm^3"}
    ]}
  ]
}
